In PubChem BioAssay (NCI):
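Growth conditions: 96-well plates. Treatment: test compound, 48 hours, 5 concentrations. Analysis: linear interpolation between bracketing concentrations; unreached endpoints set to highest concentration. TGI is the concentration that stops growth completely.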

How the values were obtained:
Experiment in all cases: inhibition of tumour cell growth, NCI panel, 48 h
MDA-MB-231 breast = test system: MDA-MB-231 breast
DU-145 prostate = test system: DU-145 prostate
SK-MEL-2 melanoma = test system: SK-MEL-2 melanoma
HCT-15 colon = test system: HCT-15 colon
SN12C renal = test system: SN12C renal
OVCAR-4 ovarian = test system: OVCAR-4 ovarian
LOX IMVI melanoma = test system: LOX IMVI melanoma
OVCAR-8 ovarian = test system: OVCAR-8 ovarian
NCI-H522 lung = test system: NCI-H522 lung
CCRF-CEM leukemia = test system: CCRF-CEM leukemia
SW-620 colon = test system: SW-620 colon
NCI/ADR-RES ovarian = test system: NCI/ADR-RES ovarian
NCI-H23 lung = test system: NCI-H23 lung
SNB-19 CNS = test system: SNB-19 CNS
A498 renal = test system: A498 renal
HS 578T breast = test system: HS 578T breast
T-47D breast = test system: T-47D breast
MCF7 breast = test system: MCF7 breast
COLO 205 colon = test system: COLO 205 colon
IGROV1 ovarian = test system: IGROV1 ovarian
CAKI-1 renal = test system: CAKI-1 renal
BT-549 breast = test system: BT-549 breast
K-562 leukemia = test system: K-562 leukemia
UO-31 renal = test system: UO-31 renal
MALME-3M melanoma = test system: MALME-3M melanoma
HOP-92 NSCLC = test system: HOP-92 NSCLC
HL-60(TB) leukemia = test system: HL-60(TB) leukemia
KM12 colon = test system: KM12 colon
786-0 renal = test system: 786-0 renal
UACC-62 melanoma = test system: UACC-62 melanoma
SK-MEL-5 melanoma = test system: SK-MEL-5 melanoma
TK-10 renal = test system: TK-10 renal
M14 melanoma = test system: M14 melanoma
MOLT-4 leukemia = test system: MOLT-4 leukemia
SF-539 CNS = test system: SF-539 CNS
U251 CNS = test system: U251 CNS
UACC-257 melanoma = test system: UACC-257 melanoma
SF-295 CNS = test system: SF-295 CNS
ACHN renal = test system: ACHN renal
HT29 colon = test system: HT29 colon
HOP-62 NSCLC = test system: HOP-62 NSCLC
SK-OV-3 ovarian = test system: SK-OV-3 ovarian
OVCAR-5 ovarian = test system: OVCAR-5 ovarian
SF-268 CNS = test system: SF-268 CNS
SNB-75 CNS = test system: SNB-75 CNS
PC-3 prostate = test system: PC-3 prostate
RPMI-8226 leukemia = test system: RPMI-8226 leukemia
NCI-H226 lung = test system: NCI-H226 lung
A549 NSCLC = test system: A549 NSCLC
EKVX NSCLC = test system: EKVX NSCLC
HCT-116 colon = test system: HCT-116 colon
SK-MEL-28 melanoma = test system: SK-MEL-28 melanoma
HCC-2998 colon = test system: HCC-2998 colon
RXF 393 renal = test system: RXF 393 renal
OVCAR-3 ovarian = test system: OVCAR-3 ovarian
NCI-H460 lung = test system: NCI-H460 lung
MDA-MB-435 = test system: MDA-MB-435

Which results are given for `O=C1CCCc2cc3c(cc21)CC1(C3)Cc2cc3c(cc2C1)C(=O)CCC3`?
TGI (MDA-MB-231 breast): 21.6 µM; TGI (DU-145 prostate): 19 µM; TGI (SK-MEL-2 melanoma): 15.6 µM; TGI (HCT-15 colon): > 59.6 µM; TGI (SN12C renal): > 85.3 µM; TGI (OVCAR-4 ovarian): 82.7 µM; TGI (LOX IMVI melanoma): > 65.3 µM; TGI (OVCAR-8 ovarian): 36.3 µM; TGI (NCI-H522 lung): 6.15 µM; TGI (CCRF-CEM leukemia): > 34.2 µM; TGI (SW-620 colon): > 100 µM; TGI (NCI/ADR-RES ovarian): 6.65 µM; TGI (NCI-H23 lung): 31.7 µM; TGI (SNB-19 CNS): > 100 µM; TGI (A498 renal): 53.6 µM; TGI (HS 578T breast): > 100 µM; TGI (T-47D breast): > 100 µM; TGI (MCF7 breast): 15.3 µM; TGI (COLO 205 colon): 5.06 µM; TGI (IGROV1 ovarian): 84.6 µM; TGI (CAKI-1 renal): > 88 µM; TGI (BT-549 breast): 90.2 µM; TGI (K-562 leukemia): > 42.2 µM; TGI (UO-31 renal): 81.4 µM; TGI (MALME-3M melanoma): > 62.6 µM; TGI (HOP-92 NSCLC): 82.1 µM; TGI (HL-60(TB) leukemia): 4.6 µM; TGI (KM12 colon): 7.85 µM; TGI (786-0 renal): 64.8 µM; TGI (UACC-62 melanoma): 30.9 µM; TGI (SK-MEL-5 melanoma): 7.09 µM; TGI (TK-10 renal): 43.1 µM; TGI (M14 melanoma): 11.8 µM; TGI (MOLT-4 leukemia): > 43.1 µM; TGI (SF-539 CNS): 5.85 µM; TGI (U251 CNS): 36.5 µM; TGI (UACC-257 melanoma): 31.2 µM; TGI (SF-295 CNS): > 56 µM; TGI (ACHN renal): 35.8 µM; TGI (HT29 colon): 7.41 µM; TGI (HOP-62 NSCLC): > 63.2 µM; TGI (SK-OV-3 ovarian): > 44.7 µM; TGI (OVCAR-5 ovarian): > 62.5 µM; TGI (SF-268 CNS): > 100 µM; TGI (SNB-75 CNS): > 100 µM; TGI (PC-3 prostate): > 100 µM; TGI (RPMI-8226 leukemia): 15.6 µM; TGI (NCI-H226 lung): 23.4 µM; TGI (A549 NSCLC): 53.8 µM; TGI (EKVX NSCLC): > 100 µM; TGI (HCT-116 colon): 37.9 µM; TGI (SK-MEL-28 melanoma): 41.7 µM; TGI (HCC-2998 colon): 10.4 µM; TGI (RXF 393 renal): > 29.3 µM; TGI (OVCAR-3 ovarian): 7.2 µM; TGI (NCI-H460 lung): > 44.2 µM

What does the source list for `Nc1ccccc1-n1c2c(c3ccccc3c1=O)C(=O)c1ccccc1-2`?
TGI (MDA-MB-435): > 100 µM; TGI (MDA-MB-231 breast): > 100 µM; TGI (DU-145 prostate): > 100 µM; TGI (SK-MEL-2 melanoma): 52.8 µM; TGI (HCT-15 colon): > 100 µM; TGI (SN12C renal): > 100 µM; TGI (OVCAR-4 ovarian): 82.7 µM; TGI (LOX IMVI melanoma): > 100 µM; TGI (OVCAR-8 ovarian): 45.4 µM; TGI (NCI-H522 lung): 25.6 µM; TGI (CCRF-CEM leukemia): > 100 µM; TGI (SW-620 colon): > 100 µM; TGI (NCI/ADR-RES ovarian): 51.3 µM; TGI (NCI-H23 lung): 51.1 µM; TGI (SNB-19 CNS): 23.8 µM; TGI (A498 renal): > 100 µM; TGI (MCF7 breast): > 100 µM; TGI (COLO 205 colon): > 100 µM; TGI (IGROV1 ovarian): > 100 µM; TGI (CAKI-1 renal): 50.7 µM; TGI (BT-549 breast): 12.9 µM; TGI (K-562 leukemia): > 100 µM; TGI (UO-31 renal): 33.9 µM; TGI (MALME-3M melanoma): 85.5 µM; TGI (HOP-92 NSCLC): 53.6 µM; TGI (HL-60(TB) leukemia): 41.6 µM; TGI (KM12 colon): > 100 µM; TGI (786-0 renal): 55.6 µM; TGI (UACC-62 melanoma): > 100 µM; TGI (SK-MEL-5 melanoma): > 100 µM; TGI (M14 melanoma): > 100 µM; TGI (MOLT-4 leukemia): > 100 µM; TGI (SF-539 CNS): 26.8 µM; TGI (U251 CNS): 60.5 µM; TGI (UACC-257 melanoma): > 100 µM; TGI (SF-295 CNS): 40.1 µM; TGI (ACHN renal): 18.3 µM; TGI (HT29 colon): > 100 µM; TGI (HOP-62 NSCLC): 22.9 µM; TGI (SK-OV-3 ovarian): 21.5 µM; TGI (OVCAR-5 ovarian): > 100 µM; TGI (SF-268 CNS): 48.2 µM; TGI (SNB-75 CNS): > 100 µM; TGI (PC-3 prostate): 97.4 µM; TGI (RPMI-8226 leukemia): > 100 µM; TGI (NCI-H226 lung): > 100 µM; TGI (A549 NSCLC): > 100 µM; TGI (EKVX NSCLC): > 100 µM; TGI (HCT-116 colon): > 100 µM; TGI (SK-MEL-28 melanoma): > 100 µM; TGI (HCC-2998 colon): > 100 µM; TGI (OVCAR-3 ovarian): 55.1 µM; TGI (NCI-H460 lung): > 100 µM
